Legend:
D3 cells = assay: ATP measurement (CellTiter-Glo); assay type: cell-based, human; conditions: co-treatment with the peptide; 3 hours
Protocol: (§1) Steady state levels of ATP were estimated using the Cell Titter-Glo, according to manufacturer's instructions. Briefly, 5×10^3 cells per well of both D3 and SHSY cells were plated on 96-wells plates. The day after, cells were treated with either 10 μM Q22 or 50 μM Ab42 peptides, respectively. Peptides were added alone or in combination with increasing concentrations of MTZ (100 and 300 μM) or AZT (30 and 300 μM). Controls were treated with either DMSO or 5 μM oligomycin. After 3 hours of treatment, the plates containing the cells were equilibrated to room temperature for 30 minutes prior to addition of the luciferin/luciferase/cell lysis mixture. Absolute luminescence from quadruplicate experiments was recorded using a SpectraMax plate reader (Molecular Devices, Sunnyvalem Calif., US).

SH-SY5Y cells = assay: ATP measurement (CellTiter-Glo); assay type: cell-based, human; conditions: drug in combination with the peptide; 3 hours
Protocol: as §1

[1] = test system: caspase 9 in SH-SY5Y neuronal cells; assay: Caspase-Glo 9 activity after Aβ challenge; assay type: cell-based, human; conditions: for caspase 9 activation: Example 2/3, FIG. 16C, 22
Protocol: Caspase 9 and caspase 3/7 activation was measured by luminescent assays (Caspase-Glo 9 and caspase-Glo 3/7, Promega, Madison, Wis.), in cells treated with the Aβ peptides in DMEM without FBS. Briefly, 10,000 cells/well were plated in 96 wells plates and incubated for 24 hours with the freshly solubilized Aβ peptides. Caspase-Glo reagent was added to the cell cultures resulting in cell lysis, followed by caspase cleavage of the substrate and generation of a luminescent signal produced by the luciferase reaction. After 40 minutes incubation, the amount of caspase activity was evaluated in a plate-reading luminometer (Synergy HT Multi-Mode Microplate Reader, Biotek, Winooski, Vt.) as described in (Fossati et al., 2012b). To inhibit non-specific background activity, the proteasome inhibitor MG-132 was added to the Caspase-Glo reagent before the experiment as indicated by the manufacturer. In all cases results are expressed as fold-change compared to untreated control cells.
Cells were plated at a confluence of 10.000 cells per well in 96-wells microplate luminescence microtiter (ThermoFisher, Waltham, Mass., US). The day after, cells were treated with the peptides and/or drugs for the experimental times. After that, caspase-Glo 9 assay was performed, following the protocol provided from the manufacturer. Luminescence was measured using a FlexStation 3 Multi-Mode Microplate Reader (Molecular devices, Sunnyvalem Calif., US).

TgSwDI mice = assay: Contextual fear conditioning; assay type: in vivo, mouse; conditions: short-term treatment (3 months)
[2] = test system: D3 cerebral microvascular endothelial cells; assay: TMRM assay of mitochondrial membrane potential (ΔΨ); assay type: cell-based, human; conditions: for ΔΨ after pre-aggregated Aβ: any of the used concentrations, 45 minutes
Protocol: (§2) Briefly, cells were plated on 25 mm optical borosilicate poly-L-lysine-coated sterile glass covers (ThermoFisher, Waltham, Mass., US) at a 70% confluence. The day after, cells were washed twice with HBSS and charged with 600 nM TMRM on HBSS. Cells were then incubated for 20 min in the incubator, at 37° C. and washed again with HBSS. After that, the medium was replaced by HBSS containing 150 nM of tetramethylrhodamine methyl ester (TMRM), in order to maintain the equilibrium distribution of the fluorophore. Cells were then mounted on Sykes-Moores chambers (BellCo, Vineland, N.J., US) and treated with the different drugs and/or peptides. An image was taken at minute 0 and at minute 45, after adding the drugs and/or peptides. In this experiment, the peptide was pre-aggregated as above before adding it to the cells.

SH-SY5Y neuronal cells = assay: as above; assay type: cell-based, human; conditions: for ΔΨ after pre-aggregated Aβ: any of the used concentrations, 45 minutes
Protocol: as §2

EC and SH-SY5Y cultures = assay: Immunofluorescence deconvolution microscopy of CytC and MitoTracker (mitochondrial membrane potential); assay type: cell-based, human; conditions: for loss of mitochondrial membrane potential (red dye internalization): Example 3, cells treated with Aβ
Protocol: Both EC and SH-SY5Y cells were plated on to glass chamber slides (Thermo Fisher Scientific), pre-coated with either collagen-I or poly-d-lysine (for ECs and SH-SY5Y cells respectively). After seeding, cells were allowed to attach for 1 day before treatment with the different peptides for 1-3 days, as above. Cells were washed with ice-cold PBS, fixed with 4% paraformaldehyde (10 min at room temperature) and blocked for 1 h with 20 mg/ml BSA in PBST (PBS containing 0.3% Triton X-100). Slides were further incubated with mouse anti-CytC monoclonal antibody (BD Biosciences; 1:200 dilution in PBST containing 5 mg/ml BSA; 2 h at room temperature) followed by Alexa Fluor® 488-conjugated anti-(mouse IgG) antibody (Invitrogen; 1:200 in PBST with 5 mg/ml BSA; 1 h at room temperature). Fluorescence signals were visualized in a Nikon Eclipse E 800 deconvolution microscope using NIS Elements software (Nikon Instruments) for image acquisition and processing, and AutoQuant (Media Cybernetics) for 3D deconvolution. The effect of methazolamide in preventing the Aβ-induced release of CytC from the mitochondria into the cytoplasm was evaluated in EC and SH-SY5Y cultures. After peptide incubation in the presence and absence of methazolamide (Sigma), release of CytC was visualized by immunofluorescence microscopy and WB analysis, and corroborated by confocal assessment of CytC in conjunction with the mitochondrial marker MitoTracker®.

M059K Glioma cells = assay: Cell Death ELISAplus, Aβ-induced apoptosis (fragmented nucleosomes); assay type: cell-based, human; conditions: for apoptosis in response to Aβ: Example 2, glial cells, FIG. 17C
Protocol: The extent of apoptosis caused by Aβ in the presence or absence of MTZ was assessed by quantitation of nucleosome formation using Cell Death ELISA^plus (Roche Applied Science, Indianapolis, Ind.). Briefly, after incubation with the peptides, plates were centrifuged in a Beckman J-6B centrifuge (10 min; 1,000 rpm), cells lysed, and DNA-histone complexes (nucleosomes) quantitated by Cell Death ELISA, as previously described (Fossati et al., 2010).

mitochondrial CA = conditions: reference (16); cited from earlier work
[3] = ATZ 10 μM added to the peptides
[4] = Aβ-Iowa(isoD), 1 day, methazolamide starting at 100 μM

Row | SMILES | Q22-induced increase in steady state ATP levels (D3 cells) | ATP levels under Aβ challenge (SH-SY5Y cells) | caspase 9 activation [1] | increase of freezing in contextual fear conditioning (TgSwDI mice) | loss of ΔΨ [2, 3] | ΔΨ after pre-aggregated Aβ [2] | loss of ΔΨ (SH-SY5Y neuronal cells; [3]) | ΔΨ after pre-aggregated Aβ (SH-SY5Y neuronal cells) | loss of mitochondrial membrane potential (red dye internalization) (EC and SH-SY5Y cultures) | apoptosis in response to Aβ (M059K Glioma cells) | activity on mitochondrial CA (mitochondrial CA) | caspase 9 over-activation ([1]; 100 or 300 μM MTZ, 10 μM Aβ42, 24 hours) | caspase 9 activity, drug alone ([1]; MTZ alone in absence of Aβ) | mitochondrial membrane potential (MitoTracker localization) (EC and SH-SY5Y cultures; [4]) | subcellular localization of CytC (EC and SH-SY5Y cultures; [4]) | apoptotic phenotype caused by the Aβ peptides (M059K Glioma cells; 100 μM MTZ, Aβ42 10 μM or Aβ40-Q22 50 μM, 3 days) | Aβ-mediated increase in fragmented nucleosomes (M059K Glioma cells; 300 μM MTZ, Aβ42 10 μM or Aβ40-Q22 50 μM, 3 days)
1 | CC(=O)Nc1nnc(S(N)(=O)=O)s1 [ATZ, acetazolamide] | unaffected | remained unchanged | protective effect | normalizing effect | prevent loss of ΔΨ | rescue ΔΨ to values similar to those observed under control conditions | prevent loss of ΔΨ | rescue ΔΨ to values similar to those observed under control conditions | prevented | prevented | high activity |  |  |  |  |  | 
2 | CC(=O)/N=c1/sc(S(N)(=O)=O)nn1C [MTZ, methazolamide] | unaffected | remained unchanged | protective effect | normalizing effect |  | rescue ΔΨ to values similar to those observed under control conditions |  | rescue ΔΨ to values similar to those observed under control conditions | prevented | prevented | high activity | completely inhibited | did not have any effect | restored the mitochondrial membrane potential | preserved the subcellular localization of CytC | completely reverted the apoptotic phenotype | completely prevented

Source: patent US10780094B2, “Use of carbonic anhydrase inhibitors for treatment of neurological and psychiatric disorders” (New York University, priority 2016, dated 2020)
